According to ChEMBL document CHEMBL3991601, “The target landscape of clinical kinase drugs” (Science, 2017):
Calls of active or inactive are those of the source. For most assays here, no stated cut-off is given here; in the data, actives have a measured Kd and inactives only a lower limit.

How the values were obtained:
[1] = target: T1, Serine/threonine-protein kinase ICK (Homo sapiens, UniProt Q9UPZ9)
T1 sequence (Q9UPZ9 whole entry): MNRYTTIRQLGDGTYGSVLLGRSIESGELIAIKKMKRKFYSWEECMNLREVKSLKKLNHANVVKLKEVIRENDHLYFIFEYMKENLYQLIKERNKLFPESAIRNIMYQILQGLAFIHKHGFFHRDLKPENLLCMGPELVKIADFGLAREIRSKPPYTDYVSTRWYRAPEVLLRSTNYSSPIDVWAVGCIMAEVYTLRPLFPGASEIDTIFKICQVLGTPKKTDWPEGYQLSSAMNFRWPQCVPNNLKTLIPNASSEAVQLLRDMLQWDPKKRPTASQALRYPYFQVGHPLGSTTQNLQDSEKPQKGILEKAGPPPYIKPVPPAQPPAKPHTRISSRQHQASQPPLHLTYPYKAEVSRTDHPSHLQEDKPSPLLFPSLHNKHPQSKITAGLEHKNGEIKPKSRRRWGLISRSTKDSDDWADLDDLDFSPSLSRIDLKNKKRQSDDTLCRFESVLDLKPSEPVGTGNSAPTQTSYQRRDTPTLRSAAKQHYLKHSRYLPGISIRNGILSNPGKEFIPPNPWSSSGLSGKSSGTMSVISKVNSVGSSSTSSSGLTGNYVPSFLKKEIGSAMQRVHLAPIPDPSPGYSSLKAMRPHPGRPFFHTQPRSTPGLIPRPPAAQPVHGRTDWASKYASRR

[2] = target: Rho-associated protein kinase 1 (Homo sapiens, UniProt Q13464)
Chain of Rho-associated protein kinase 1 (Q13464 whole entry): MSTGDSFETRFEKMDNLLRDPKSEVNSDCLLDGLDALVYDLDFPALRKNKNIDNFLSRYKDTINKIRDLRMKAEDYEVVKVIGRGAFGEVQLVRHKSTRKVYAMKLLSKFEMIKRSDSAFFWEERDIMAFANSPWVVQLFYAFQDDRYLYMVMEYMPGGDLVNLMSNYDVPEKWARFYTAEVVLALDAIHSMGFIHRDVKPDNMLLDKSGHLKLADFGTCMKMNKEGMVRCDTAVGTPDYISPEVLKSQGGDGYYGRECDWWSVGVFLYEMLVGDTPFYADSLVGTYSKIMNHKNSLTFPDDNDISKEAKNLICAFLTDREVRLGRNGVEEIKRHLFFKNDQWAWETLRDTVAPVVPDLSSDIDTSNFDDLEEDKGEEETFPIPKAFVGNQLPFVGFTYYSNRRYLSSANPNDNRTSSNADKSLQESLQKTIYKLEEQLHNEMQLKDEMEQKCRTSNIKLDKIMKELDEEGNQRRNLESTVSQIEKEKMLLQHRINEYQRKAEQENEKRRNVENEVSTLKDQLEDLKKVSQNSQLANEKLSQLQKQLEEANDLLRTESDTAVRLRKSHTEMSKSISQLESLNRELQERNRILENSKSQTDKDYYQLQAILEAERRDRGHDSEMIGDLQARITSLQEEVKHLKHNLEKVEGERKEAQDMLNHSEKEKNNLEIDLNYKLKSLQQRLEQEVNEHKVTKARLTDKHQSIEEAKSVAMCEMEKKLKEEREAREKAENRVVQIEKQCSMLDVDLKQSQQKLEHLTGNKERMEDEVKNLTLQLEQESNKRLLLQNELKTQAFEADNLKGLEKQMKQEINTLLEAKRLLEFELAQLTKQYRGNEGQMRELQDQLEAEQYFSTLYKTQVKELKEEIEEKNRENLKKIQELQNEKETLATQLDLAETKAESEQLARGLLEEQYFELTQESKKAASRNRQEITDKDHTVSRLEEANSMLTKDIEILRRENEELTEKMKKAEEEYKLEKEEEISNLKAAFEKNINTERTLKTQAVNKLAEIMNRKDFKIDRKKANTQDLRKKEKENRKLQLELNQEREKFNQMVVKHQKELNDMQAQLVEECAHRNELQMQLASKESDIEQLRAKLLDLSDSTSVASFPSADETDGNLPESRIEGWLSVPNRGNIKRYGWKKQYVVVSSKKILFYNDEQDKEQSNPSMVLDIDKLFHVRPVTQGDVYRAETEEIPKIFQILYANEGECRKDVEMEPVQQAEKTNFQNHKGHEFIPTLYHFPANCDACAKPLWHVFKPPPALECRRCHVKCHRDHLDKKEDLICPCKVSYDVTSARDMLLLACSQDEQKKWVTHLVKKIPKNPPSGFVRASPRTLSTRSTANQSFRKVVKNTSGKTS

[3] = target: T2, Serine/threonine-protein kinase TAO2 (Homo sapiens, UniProt Q9UL54)
T2 sequence (Q9UL54 whole entry): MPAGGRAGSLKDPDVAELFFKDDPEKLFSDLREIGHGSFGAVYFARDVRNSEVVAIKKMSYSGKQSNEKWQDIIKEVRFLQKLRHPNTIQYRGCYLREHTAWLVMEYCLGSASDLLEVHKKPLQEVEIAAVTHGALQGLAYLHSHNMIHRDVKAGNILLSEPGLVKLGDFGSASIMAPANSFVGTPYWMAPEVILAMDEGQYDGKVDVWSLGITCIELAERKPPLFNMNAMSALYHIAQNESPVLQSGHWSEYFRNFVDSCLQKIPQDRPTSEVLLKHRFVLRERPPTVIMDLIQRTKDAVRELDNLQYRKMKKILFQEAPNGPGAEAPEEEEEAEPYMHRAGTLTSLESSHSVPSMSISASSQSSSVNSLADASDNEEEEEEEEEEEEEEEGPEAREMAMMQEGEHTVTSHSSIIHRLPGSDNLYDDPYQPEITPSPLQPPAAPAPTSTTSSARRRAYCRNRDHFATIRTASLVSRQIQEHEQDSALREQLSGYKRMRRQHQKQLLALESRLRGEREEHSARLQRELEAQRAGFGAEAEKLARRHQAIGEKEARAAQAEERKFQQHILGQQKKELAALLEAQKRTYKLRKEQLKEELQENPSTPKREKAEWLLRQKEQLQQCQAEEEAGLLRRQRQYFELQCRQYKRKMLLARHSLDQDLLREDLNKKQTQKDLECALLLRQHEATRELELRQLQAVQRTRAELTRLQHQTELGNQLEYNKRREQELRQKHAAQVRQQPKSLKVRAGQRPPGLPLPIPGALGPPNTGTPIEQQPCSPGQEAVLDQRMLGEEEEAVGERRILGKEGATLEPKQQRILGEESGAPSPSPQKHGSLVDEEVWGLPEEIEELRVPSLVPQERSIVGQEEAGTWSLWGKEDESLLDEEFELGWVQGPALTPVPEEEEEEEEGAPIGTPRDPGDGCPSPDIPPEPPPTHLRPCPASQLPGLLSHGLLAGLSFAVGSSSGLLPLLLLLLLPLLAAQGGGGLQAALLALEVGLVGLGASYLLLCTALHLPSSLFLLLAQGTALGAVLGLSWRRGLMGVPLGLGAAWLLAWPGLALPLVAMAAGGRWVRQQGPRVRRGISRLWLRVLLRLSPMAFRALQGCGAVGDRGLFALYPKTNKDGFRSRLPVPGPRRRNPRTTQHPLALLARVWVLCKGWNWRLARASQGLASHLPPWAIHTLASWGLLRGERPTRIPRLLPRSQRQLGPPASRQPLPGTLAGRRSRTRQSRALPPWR

[4] = target: RAC-gamma serine/threonine-protein kinase (Homo sapiens, UniProt Q9Y243)
Chain of RAC-gamma serine/threonine-protein kinase (Q9Y243 whole entry): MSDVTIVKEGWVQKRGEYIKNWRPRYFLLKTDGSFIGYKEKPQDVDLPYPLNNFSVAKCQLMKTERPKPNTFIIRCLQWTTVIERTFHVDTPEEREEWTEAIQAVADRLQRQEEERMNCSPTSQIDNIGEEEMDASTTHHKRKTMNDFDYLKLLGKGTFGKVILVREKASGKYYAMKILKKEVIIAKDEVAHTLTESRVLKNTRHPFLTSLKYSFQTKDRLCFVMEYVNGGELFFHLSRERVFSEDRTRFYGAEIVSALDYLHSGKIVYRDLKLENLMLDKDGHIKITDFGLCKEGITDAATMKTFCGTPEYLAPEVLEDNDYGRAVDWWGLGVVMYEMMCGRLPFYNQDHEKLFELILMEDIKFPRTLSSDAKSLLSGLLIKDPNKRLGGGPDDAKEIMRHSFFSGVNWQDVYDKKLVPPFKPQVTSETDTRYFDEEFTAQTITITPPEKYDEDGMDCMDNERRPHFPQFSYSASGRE

TGF-beta receptor type-2 = TGF-beta receptor type-2 (Homo sapiens, UniProt P37173)
Chain of TGF-beta receptor type-2 (P37173 whole entry): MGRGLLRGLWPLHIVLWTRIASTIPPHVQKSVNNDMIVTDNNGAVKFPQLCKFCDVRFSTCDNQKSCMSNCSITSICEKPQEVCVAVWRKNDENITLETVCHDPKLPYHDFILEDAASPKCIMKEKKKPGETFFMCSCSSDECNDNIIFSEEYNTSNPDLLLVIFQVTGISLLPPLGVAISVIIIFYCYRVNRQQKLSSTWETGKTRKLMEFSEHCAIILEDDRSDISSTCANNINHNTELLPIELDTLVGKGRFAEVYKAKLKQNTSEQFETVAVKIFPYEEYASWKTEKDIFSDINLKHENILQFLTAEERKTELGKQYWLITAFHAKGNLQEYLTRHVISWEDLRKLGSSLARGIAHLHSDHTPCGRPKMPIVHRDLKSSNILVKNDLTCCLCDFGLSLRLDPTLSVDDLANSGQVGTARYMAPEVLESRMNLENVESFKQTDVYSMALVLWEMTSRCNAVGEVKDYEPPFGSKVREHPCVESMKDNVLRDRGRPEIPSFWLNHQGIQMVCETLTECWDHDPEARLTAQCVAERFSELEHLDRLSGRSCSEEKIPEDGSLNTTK

[5] = target: Dual specificity mitogen-activated protein kinase kinase 1 (Homo sapiens, UniProt Q02750)
Chain of Dual specificity mitogen-activated protein kinase kinase 1 (Q02750 whole entry): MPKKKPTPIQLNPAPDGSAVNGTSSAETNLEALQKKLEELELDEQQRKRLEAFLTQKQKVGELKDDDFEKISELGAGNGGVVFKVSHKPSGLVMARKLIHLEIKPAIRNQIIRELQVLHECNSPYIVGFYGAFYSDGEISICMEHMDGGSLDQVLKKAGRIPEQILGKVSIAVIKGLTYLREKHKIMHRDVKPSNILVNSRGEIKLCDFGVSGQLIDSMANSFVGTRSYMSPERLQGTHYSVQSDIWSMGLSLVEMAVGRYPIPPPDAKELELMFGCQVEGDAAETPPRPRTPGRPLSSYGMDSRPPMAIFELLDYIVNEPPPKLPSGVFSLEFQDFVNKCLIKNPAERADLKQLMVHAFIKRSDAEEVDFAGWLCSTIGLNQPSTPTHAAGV

[6] = target: T3, DNA replication licensing factor MCM4 (Homo sapiens, UniProt P33991)
T3 sequence (P33991 whole entry): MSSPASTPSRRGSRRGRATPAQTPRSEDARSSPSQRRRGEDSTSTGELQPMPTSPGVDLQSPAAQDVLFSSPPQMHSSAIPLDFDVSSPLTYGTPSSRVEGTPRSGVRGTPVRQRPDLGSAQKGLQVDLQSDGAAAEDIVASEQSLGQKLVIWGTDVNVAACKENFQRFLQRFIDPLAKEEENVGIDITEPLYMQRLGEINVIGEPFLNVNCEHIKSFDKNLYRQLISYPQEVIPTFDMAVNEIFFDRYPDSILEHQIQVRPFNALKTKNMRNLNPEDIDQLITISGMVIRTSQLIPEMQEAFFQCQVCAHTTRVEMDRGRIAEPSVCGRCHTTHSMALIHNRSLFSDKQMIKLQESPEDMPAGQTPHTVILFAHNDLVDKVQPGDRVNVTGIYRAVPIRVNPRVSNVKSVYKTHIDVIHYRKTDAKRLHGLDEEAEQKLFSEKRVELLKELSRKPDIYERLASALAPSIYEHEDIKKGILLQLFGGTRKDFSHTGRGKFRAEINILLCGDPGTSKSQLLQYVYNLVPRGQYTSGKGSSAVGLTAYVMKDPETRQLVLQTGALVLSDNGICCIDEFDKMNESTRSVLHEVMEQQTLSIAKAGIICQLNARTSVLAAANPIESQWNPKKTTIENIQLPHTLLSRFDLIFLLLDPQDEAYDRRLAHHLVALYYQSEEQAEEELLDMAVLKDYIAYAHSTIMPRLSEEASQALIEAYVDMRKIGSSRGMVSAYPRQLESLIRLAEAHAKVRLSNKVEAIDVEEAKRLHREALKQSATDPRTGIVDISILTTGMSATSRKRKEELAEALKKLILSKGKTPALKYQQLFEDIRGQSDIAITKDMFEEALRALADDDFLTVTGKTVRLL

[7] = target: Tyrosine-protein kinase ABL1 (Homo sapiens, UniProt P00519)
Chain of Tyrosine-protein kinase ABL1 (P00519 whole entry): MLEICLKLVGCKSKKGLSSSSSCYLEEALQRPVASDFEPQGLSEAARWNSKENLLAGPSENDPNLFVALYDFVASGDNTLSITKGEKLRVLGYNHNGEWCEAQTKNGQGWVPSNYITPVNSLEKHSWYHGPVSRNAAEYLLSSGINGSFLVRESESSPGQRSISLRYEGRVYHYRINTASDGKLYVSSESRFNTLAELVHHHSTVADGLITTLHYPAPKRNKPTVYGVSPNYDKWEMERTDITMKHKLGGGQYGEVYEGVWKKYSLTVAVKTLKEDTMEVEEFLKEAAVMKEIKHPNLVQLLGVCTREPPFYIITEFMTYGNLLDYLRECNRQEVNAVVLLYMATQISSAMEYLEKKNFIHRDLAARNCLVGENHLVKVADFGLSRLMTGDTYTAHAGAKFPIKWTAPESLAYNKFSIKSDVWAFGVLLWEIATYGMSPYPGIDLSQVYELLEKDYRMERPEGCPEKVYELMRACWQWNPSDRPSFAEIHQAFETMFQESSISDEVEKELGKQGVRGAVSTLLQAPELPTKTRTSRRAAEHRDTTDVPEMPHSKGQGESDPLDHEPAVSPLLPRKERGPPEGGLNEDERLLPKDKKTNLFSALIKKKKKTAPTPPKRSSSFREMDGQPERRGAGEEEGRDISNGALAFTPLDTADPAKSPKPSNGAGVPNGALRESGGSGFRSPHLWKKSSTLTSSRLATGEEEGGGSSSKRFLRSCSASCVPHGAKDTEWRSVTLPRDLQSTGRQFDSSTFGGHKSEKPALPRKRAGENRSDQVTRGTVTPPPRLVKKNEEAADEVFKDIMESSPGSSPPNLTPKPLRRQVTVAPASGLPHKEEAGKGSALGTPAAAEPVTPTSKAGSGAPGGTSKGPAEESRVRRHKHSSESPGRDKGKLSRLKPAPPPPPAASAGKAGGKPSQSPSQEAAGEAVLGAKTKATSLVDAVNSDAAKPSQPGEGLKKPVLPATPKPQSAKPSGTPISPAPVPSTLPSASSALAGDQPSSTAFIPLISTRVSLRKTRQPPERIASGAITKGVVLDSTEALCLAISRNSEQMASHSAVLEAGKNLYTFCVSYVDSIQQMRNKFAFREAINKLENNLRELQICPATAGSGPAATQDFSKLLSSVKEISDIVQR

Row | Kd [1] | Kd [2] | Kd [3] | Kd [4] | Kd (TGF-beta receptor type-2) | Kd [5] | Kd [6] | Kd [7] | Compound
1 | > 30 µM (inactive) | > 30 µM (inactive) | > 30 µM (inactive) | > 30 µM (inactive) | > 30 µM (inactive) | > 30 µM (inactive) | > 30 µM (inactive) | 1.09 µM (active) | CCN1CCN(Cc2ccc(-c3cc4c(N[C@H](C)c5ccccc5)ncnc4[nH]3)cc2)CC1 [AEE-788]
2 | > 30 µM (inactive) | > 30 µM (inactive) | > 30 µM (inactive) | > 30 µM (inactive) | > 30 µM (inactive) | > 30 µM (inactive) | > 30 µM (inactive) | 0.062 µM (active) | O=C(O)[C@]1(Cc2cccc(Nc3nccs3)n2)CC[C@@H](Oc2cccc(Cl)c2F)CC1 [MK-5108]
3 | > 30 µM (inactive) | > 30 µM (inactive) | > 30 µM (inactive) | > 30 µM (inactive) | > 30 µM (inactive) | > 30 µM (inactive) |  | > 30 µM (inactive) | Cn1cc(-c2ccc3nnc(C(F)(F)c4ccc5ncccc5c4)n3n2)cn1 [JNJ-38877605]
4 | > 30 µM (inactive) | > 30 µM (inactive) | > 30 µM (inactive) | > 30 µM (inactive) | > 30 µM (inactive) | > 30 µM (inactive) |  | > 30 µM (inactive) | Cn1cc(-c2ccc(F)c(C(F)(F)F)c2)nc1C1CCN(c2ncnc3[nH]ncc23)CC1 [LY-2584702]

More lines, now with the values behind:

Row | Compound | Kd [1] | Kd [2] | Kd [3] | Kd [4] | Kd (TGF-beta receptor type-2) | Kd [5] | Kd [6] | Kd [7]
5 | COC(=O)N[C@@H](C)CNc1nccc(-c2cn(C(C)C)nc2-c2cc(Cl)cc(NS(C)(=O)=O)c2F)n1 [ENCORAFENIB] | > 30 µM (inactive) | > 30 µM (inactive) | > 30 µM (inactive) | > 30 µM (inactive) | > 30 µM (inactive) | > 30 µM (inactive) | > 30 µM (inactive) | > 30 µM (inactive)
6 | Cc1cc(-c2cc(O)ccc2Cl)cc2nnc(Nc3ccc(OCCN4CCCC4)cc3)nc12 | > 30 µM (inactive) | > 30 µM (inactive) | > 30 µM (inactive) | > 30 µM (inactive) | > 30 µM (inactive) | > 30 µM (inactive) | > 30 µM (inactive) | 0.002 µM (active)
7 | CCCS(=O)(=O)Nc1ccc(F)c(C(=O)c2c[nH]c3ncc(-c4ccc(Cl)cc4)cc23)c1F [VEMURAFENIB] | > 30 µM (inactive) | > 30 µM (inactive) | > 30 µM (inactive) | > 30 µM (inactive) | 3.4 µM (active) | > 30 µM (inactive) | > 30 µM (inactive) | > 30 µM (inactive)
8 | CC[C@H](Nc1ncnc2[nH]cnc12)c1nc2cccc(F)c2c(=O)n1-c1ccccc1 [IDELALISIB] | > 30 µM (inactive) | > 30 µM (inactive) | > 30 µM (inactive) | > 30 µM (inactive) | > 30 µM (inactive) | > 30 µM (inactive) | > 30 µM (inactive) | > 30 µM (inactive)
9 | CN1N=C(N)c2cn([C@@H]3O[C@H](COP(=O)(O)O)[C@@H](O)[C@H]3O)c3ncnc1c23 [TRICIRIBINE PHOSPHATE] | > 30 µM (inactive) | > 30 µM (inactive) | > 30 µM (inactive) | > 30 µM (inactive) | > 30 µM (inactive) | > 30 µM (inactive) | > 30 µM (inactive) | > 30 µM (inactive)
10 | O=c1sn(-c2cccc3ccccc23)c(=O)n1Cc1ccccc1 [TIDEGLUSIB] | > 30 µM (inactive) | > 30 µM (inactive) | > 30 µM (inactive) | > 30 µM (inactive) | > 30 µM (inactive) | > 30 µM (inactive) | > 30 µM (inactive) | > 30 µM (inactive)
11 | C=CC(=O)N1CCC(Oc2cc3c(Nc4ccc(Cl)c(Cl)c4F)ncnc3cc2OC)CC1 [POZIOTINIB] | > 30 µM (inactive) | > 30 µM (inactive) | > 30 µM (inactive) | > 30 µM (inactive) | > 30 µM (inactive) | > 30 µM (inactive) | > 30 µM (inactive) | > 30 µM (inactive)
12 | CN1CC[C@@H](c2c(O)cc(O)c3c(=O)cc(-c4ccccc4Cl)oc23)[C@@H]1CO | 0.892 µM (active) | > 30 µM (inactive) | > 30 µM (inactive) | 5.92 µM | > 30 µM (inactive) | > 30 µM (inactive) | > 30 µM (inactive) | > 30 µM (inactive)
13 | C1=C/COCc2cc(ccc2OCCN2CCCC2)Nc2nccc(n2)-c2cccc(c2)COC/1 [PACRITINIB] | 0.27 µM (active) | > 30 µM (inactive) | 3.37 µM (active) | > 30 µM (inactive) | > 30 µM (inactive) | > 30 µM (inactive) |  | > 30 µM (inactive)
14 | N[C@@H]1CCCN(c2c(/C=C3\SC(=O)NC3=O)cccc2-c2ccccc2)C1 | > 30 µM (inactive) | > 30 µM (inactive) | > 30 µM (inactive) | > 30 µM (inactive) |  | > 30 µM (inactive) | > 30 µM (inactive) | > 30 µM (inactive)
15 | COc1cc(OC)c(/C=C/S(=O)(=O)Cc2ccc(OC)c(NCC(=O)O)c2)c(OC)c1 [RIGOSERTIB] | > 30 µM (inactive) | > 30 µM (inactive) | > 30 µM (inactive) | > 30 µM (inactive) | > 30 µM (inactive) | > 30 µM (inactive) |  | > 30 µM (inactive)
16 | CCn1c(=O)c(-c2cc[nH]n2)cc2c(C)nc(N)nc21 [VOXTALISIB] | > 30 µM (inactive) | > 30 µM (inactive) | > 30 µM (inactive) | > 30 µM (inactive) |  | > 30 µM (inactive) | > 30 µM (inactive) | > 30 µM (inactive)
